# Experimental data taken from patent publication US20210100760A1 (Strongbridge Dublin Limited, priority 2019, published 2021).
# Where two headings read alike, the source gives them in different places.
# How the values were obtained:
# OAT3 [1] = target: T1, OAT3 (Homo sapiens, UniProt Q8TCC7); assay: OAT3 positive-control inhibition, [3H]-Estrone-3-sulfate probe substrate uptake in HEK293 cells; assay type: in vitro ADME; conditions: [3H]-Estrone-3-sulfate (50 nM) probe, inhibitor 100 μM
# T1 sequence (Q8TCC7 1-542): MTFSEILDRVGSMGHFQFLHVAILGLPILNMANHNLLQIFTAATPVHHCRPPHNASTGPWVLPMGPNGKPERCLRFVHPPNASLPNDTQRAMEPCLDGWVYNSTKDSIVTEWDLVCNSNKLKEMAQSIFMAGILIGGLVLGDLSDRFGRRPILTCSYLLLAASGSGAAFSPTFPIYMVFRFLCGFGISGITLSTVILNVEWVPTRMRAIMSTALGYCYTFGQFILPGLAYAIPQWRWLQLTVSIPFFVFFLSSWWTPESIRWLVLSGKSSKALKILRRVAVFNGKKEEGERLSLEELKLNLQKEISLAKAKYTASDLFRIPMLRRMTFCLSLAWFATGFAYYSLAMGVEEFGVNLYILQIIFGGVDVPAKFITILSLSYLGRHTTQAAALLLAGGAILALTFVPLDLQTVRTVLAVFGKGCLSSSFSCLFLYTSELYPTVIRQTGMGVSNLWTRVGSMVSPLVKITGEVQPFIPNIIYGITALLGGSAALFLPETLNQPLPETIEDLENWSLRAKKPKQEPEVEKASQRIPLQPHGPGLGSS
# OAT1 = target: T2, OAT1 (Homo sapiens, UniProt Q4U2R8); assay: OAT1 substrate determination in HEK293 cells; assay type: in vitro ADME; conditions: for Uptake ratio: OAT1 vs control cells; for Uptake (Average ± SD), OAT1: OAT1-expressing HEK293 cells; for recovery at 10 μM: human
# T2 sequence (Q4U2R8 1-563): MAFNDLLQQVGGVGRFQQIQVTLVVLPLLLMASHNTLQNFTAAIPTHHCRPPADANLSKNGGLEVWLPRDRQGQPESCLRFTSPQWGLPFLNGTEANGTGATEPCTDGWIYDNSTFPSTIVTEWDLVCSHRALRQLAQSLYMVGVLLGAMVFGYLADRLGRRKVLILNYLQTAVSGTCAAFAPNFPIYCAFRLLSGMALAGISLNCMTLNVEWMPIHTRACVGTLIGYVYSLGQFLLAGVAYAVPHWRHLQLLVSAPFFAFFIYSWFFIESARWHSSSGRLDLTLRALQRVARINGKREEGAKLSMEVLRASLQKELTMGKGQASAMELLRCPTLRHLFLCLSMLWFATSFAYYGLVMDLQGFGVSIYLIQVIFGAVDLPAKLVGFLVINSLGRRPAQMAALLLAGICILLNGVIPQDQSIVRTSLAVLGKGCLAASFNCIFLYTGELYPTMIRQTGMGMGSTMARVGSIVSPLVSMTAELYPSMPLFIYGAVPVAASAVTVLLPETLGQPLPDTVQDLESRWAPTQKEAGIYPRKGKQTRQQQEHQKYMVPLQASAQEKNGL
# OAT3 [2] = target: T1, OAT3; assay: OAT3 substrate determination in HEK293 cells; assay type: in vitro ADME; conditions: for Uptake ratio: OAT3 vs control cells; for Uptake (Average ± SD), OAT3: OAT3-expressing HEK293 cells; for recovery at 10 μM: human
# [3] = low plasma concentrations (1.0 to 2.0 mg/100 mL); cited from earlier work
# [4] = dichlorphenamide 10 μM + probenecid 100 μM, 1 min
# [5] = dichlorphenamide 10 μM + probenecid 100 μM, 3 min
# [6] = dichlorphenamide 10 μM + probenecid 100 μM, 10 min
# [7] = dichlorphenamide 10 μM + probenecid 100 μM, control HEK293 cells, 1 min
# [8] = dichlorphenamide 10 μM + probenecid 100 μM, control HEK293 cells, 3 min
# [9] = dichlorphenamide 10 μM + probenecid 100 μM, control HEK293 cells, 10 min
# [10] = dichlorphenamide 10 μM, incubation 1 min
# [11] = dichlorphenamide 10 μM, incubation 3 min
# [12] = dichlorphenamide 10 μM, incubation 10 min
smiles,measurement,setting,value
CCCN(CCC)S(=O)(=O)c1ccc(C(=O)O)cc1 [Probenecid],Background corrected uptake rate,OAT3 [1],0.0184 pmol/mg/min
same,"Uptake (Average ± SD), OAT3",OAT3 [1]; OAT3-expressing HEK293 cells,0.104 ± 0.006 pmol/mg protein
same,"Uptake (Average ± SD), Control",OAT3 [1]; control HEK293 cells,0.0670 ± 0.0124 pmol/mg protein
same,activity at 100 μM,"OAT3 [1]; human, HEK293 cells expressing OAT3 and control cells, pH 7.4, probe [3H]-Estrone-3-sulfate (50 nM), relative to solvent control, read-out: Percent of control",3.2%
"NS(=O)(=O)c1cc(Cl)c(Cl)c(S(N)(=O)=O)c1 [Dichlorphenamide, 4,5-dichloro-1,3-benzenedisulfonamide]",Substrate of OAT1 (conclusion from Tables 1 and 2),OAT1; HEK293 cells,is a substrate of OAT1
same,Uptake ratio,OAT1; [4],1.29
same,Uptake ratio,OAT1; [5],1.11
same,Uptake ratio,OAT1; [6],1.01
same,Uptake ratio,"OAT1; dichlorphenamide 10 μM, 1 min",2.41
same,Uptake ratio,"OAT1; dichlorphenamide 10 μM, 3 min",2.39
same,Uptake ratio,"OAT1; dichlorphenamide 10 μM, 10 min",2.23
same,"Uptake (Average ± SD), OAT1",OAT1; [4],54.4 ± 2.7 pmol/mg protein
same,"Uptake (Average ± SD), OAT1",OAT1; [5],135 ± 6 pmol/mg protein
same,"Uptake (Average ± SD), OAT1",OAT1; [6],286 ± 17 pmol/mg protein
same,"Uptake (Average ± SD), Control",OAT1; [7],42.2 ± 2.4 pmol/mg protein
same,"Uptake (Average ± SD), Control",OAT1; [8],121 ± 8 pmol/mg protein
same,"Uptake (Average ± SD), Control",OAT1; [9],284 ± 19 pmol/mg protein
same,"Uptake (Average ± SD), OAT1",OAT1; [10],109 ± 2 pmol/mg protein
same,"Uptake (Average ± SD), OAT1",OAT1; [11],294 ± 14 pmol/mg protein
same,"Uptake (Average ± SD), OAT1",OAT1; [12],591 ± 11 pmol/mg protein
same,"Uptake (Average ± SD), Control","OAT1; dichlorphenamide 10 μM, control HEK293 cells (vector only), incubation 1 min",45.4 ± 0.4 pmol/mg protein
same,"Uptake (Average ± SD), Control","OAT1; dichlorphenamide 10 μM, control HEK293 cells (vector only), incubation 3 min",123 ± 6 pmol/mg protein
same,"Uptake (Average ± SD), Control","OAT1; dichlorphenamide 10 μM, control HEK293 cells (vector only), incubation 10 min",265 ± 8 pmol/mg protein
same,recovery at 10 μM,"OAT1; HEK293 cells expressing OAT1, pH 7.4, read-out: Recovery, OAT1",98.5%
same,recovery at 10 μM,"OAT1; control HEK293 cells (transfected with vector only), pH 7.4, read-out: Recovery, Control",95.3%
same,Substrate of OAT3 (conclusion from Tables 3 and 4),OAT3 [2]; HEK293 cells,is a substrate of OAT3
same,Uptake ratio,OAT3 [2]; [4],0.987
same,Uptake ratio,OAT3 [2]; [5],1.00
same,Uptake ratio,OAT3 [2]; [6],1.24
same,Uptake ratio,"OAT3 [2]; dichlorphenamide 10 μM, 1 min",2.26
same,Uptake ratio,"OAT3 [2]; dichlorphenamide 10 μM, 3 min",2.64
same,Uptake ratio,"OAT3 [2]; dichlorphenamide 10 μM, 10 min",2.75
same,"Uptake (Average ± SD), OAT3",OAT3 [2]; [4],123 ± 7 pmol/mg protein
same,"Uptake (Average ± SD), OAT3",OAT3 [2]; [5],126 ± 18 pmol/mg protein
same,"Uptake (Average ± SD), OAT3",OAT3 [2]; [6],177 ± 16 pmol/mg protein
same,"Uptake (Average ± SD), Control",OAT3 [2]; [7],124 ± 13 pmol/mg protein
same,"Uptake (Average ± SD), Control",OAT3 [2]; [8],125 ± 5 pmol/mg protein
same,"Uptake (Average ± SD), Control",OAT3 [2]; [9],143 ± 41 pmol/mg protein
same,"Uptake (Average ± SD), OAT3",OAT3 [2]; [10],333 ± 24 pmol/mg protein
same,"Uptake (Average ± SD), OAT3",OAT3 [2]; [11],311 ± 29 pmol/mg protein
same,"Uptake (Average ± SD), OAT3",OAT3 [2]; [12],463 ± 27 pmol/mg protein
same,"Uptake (Average ± SD), Control","OAT3 [2]; dichlorphenamide 10 μM, control HEK293 cells, incubation 1 min",147 ± 47 pmol/mg protein
same,"Uptake (Average ± SD), Control","OAT3 [2]; dichlorphenamide 10 μM, control HEK293 cells, incubation 3 min",118 ± 3 pmol/mg protein
same,"Uptake (Average ± SD), Control","OAT3 [2]; dichlorphenamide 10 μM, control HEK293 cells, incubation 10 min",169 ± 9 pmol/mg protein
same,recovery at 10 μM,"OAT3 [2]; HEK293 cells expressing OAT3, pH 7.4, read-out: Recovery, OAT3",77.9%
same,recovery at 10 μM,"OAT3 [2]; control HEK293 cells, pH 7.4, read-out: Recovery, Control",68.8%
"Nc1ccc(C(=O)NCC(=O)O)cc1 [aminohippurate, p-aminohippuric acid]",Fraction cleared by the kidneys from the renal blood stream in a single circulation (average),[3],90%
